Data on 2 compounds can be found in publication PMC2874645 (Aquatic toxicology (Amsterdam, Netherlands), 2010).

This assay addresses T1, farnesoid X receptor alpha (Fxrα) (Oryzias latipes, UniProt H2M6M7).
T1 sequence (H2M6M7 201-485): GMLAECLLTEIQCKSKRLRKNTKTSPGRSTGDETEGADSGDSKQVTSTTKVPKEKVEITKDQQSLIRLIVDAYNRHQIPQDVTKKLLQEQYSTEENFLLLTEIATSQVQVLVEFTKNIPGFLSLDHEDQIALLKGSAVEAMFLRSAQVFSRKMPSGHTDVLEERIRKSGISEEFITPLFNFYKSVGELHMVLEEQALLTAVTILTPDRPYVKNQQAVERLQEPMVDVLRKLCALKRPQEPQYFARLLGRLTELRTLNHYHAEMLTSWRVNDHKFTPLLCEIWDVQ
T1 sequence (Q9UBK2 1-798 partner): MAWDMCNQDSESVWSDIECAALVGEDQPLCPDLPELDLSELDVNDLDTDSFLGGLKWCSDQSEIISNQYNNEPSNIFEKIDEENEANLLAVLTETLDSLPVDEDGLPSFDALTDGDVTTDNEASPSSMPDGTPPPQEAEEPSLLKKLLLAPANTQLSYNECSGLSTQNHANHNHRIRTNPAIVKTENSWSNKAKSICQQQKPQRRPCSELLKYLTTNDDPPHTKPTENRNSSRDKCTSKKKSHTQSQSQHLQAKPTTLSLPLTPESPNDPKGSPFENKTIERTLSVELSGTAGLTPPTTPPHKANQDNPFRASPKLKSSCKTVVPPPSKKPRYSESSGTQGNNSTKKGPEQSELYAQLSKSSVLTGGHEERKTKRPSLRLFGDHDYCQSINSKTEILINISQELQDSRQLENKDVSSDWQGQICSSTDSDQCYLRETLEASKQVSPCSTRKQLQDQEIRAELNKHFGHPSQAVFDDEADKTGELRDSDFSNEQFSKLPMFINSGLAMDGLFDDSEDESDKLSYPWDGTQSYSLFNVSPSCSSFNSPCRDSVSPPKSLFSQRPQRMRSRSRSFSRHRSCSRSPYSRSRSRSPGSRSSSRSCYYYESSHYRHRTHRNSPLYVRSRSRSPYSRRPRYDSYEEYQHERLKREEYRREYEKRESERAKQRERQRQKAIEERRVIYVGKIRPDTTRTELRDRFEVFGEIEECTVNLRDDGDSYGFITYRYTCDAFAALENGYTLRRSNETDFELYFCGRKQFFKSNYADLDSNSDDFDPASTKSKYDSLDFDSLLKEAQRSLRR
Briefly: Gal4-LBD luciferase reporter in PLHC-1 cells at […]. The note with it: read-out: Gal4-LBD luciferase reporter in PLHC-1 cells at 100 μM. (In a reporter assay the amount or activity of a reporter protein is the signal.)

On to `C[C@H](CCC(=O)O)[C@H]1CC[C@H]2[C@@H]3CC[C@@H]4C[C@H](O)CC[C@]4(C)[C@H]3CC[C@]12C` [lithocholic acid], for which the fold induction at 100 µM worked out at 10.7.

Regarding `C[C@H](CCC(=O)NCCS(=O)(=O)O)[C@H]1CC[C@H]2[C@@H]3CC[C@@H]4C[C@H](O)CC[C@]4(C)[C@H]3CC[C@]12C` [taurine conjugate of LCA], the fold induction at 100 µM is 10.5.
